From the supplement of paper PMC10307832

Assays:
Test in all cases: relative viability (nuclei count vs DMSO), 5 days (fraction); higher = more cells survive
[1] = compound: C/C(=N\NC(=S)N1CCC1)/C2=CC=CC=N2 + N=C(N)NC(=N)NCCc1ccccc1 [Phenformin] (partner 250 µM)
Summary of the method: (§1)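 Lung cancer cell lines were pin-tool dosed in 1536-well plates on the day after seeding, with either a lone drug or a fixed anchor-drug dose plus five library-drug doses (not always all listed) in √10 steps. Nuclei were counted on 4× images after 5 days. Relative viability is the ratio of treated-well to vehicle-well nuclei counts, with each value a median of duplicate plates.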

[2] = compound: C/C(=N\NC(=S)N1CCC1)/C2=CC=CC=N2 + O=C(c1cc(Cc2n[nH]c(=O)c3ccccc23)ccc1F)N1CCN(C(=O)C2CC2)CC1 [Olaparib] (partner 8 µM)
Summary of the method: as §1

[3] = compound: C/C(=N\NC(=S)N1CCC1)/C2=CC=CC=N2 + CC(=O)Nc1cccc(-n2c(=O)n(C3CC3)c(=O)c3c(Nc4ccc(I)cc4F)n(C)c(=O)c(C)c32)c1 [Trametinib] (partner 0.02 µM)
Summary of the method: as §1

[4] = compound: C/C(=N\NC(=S)N1CCC1)/C2=CC=CC=N2
Summary of the method: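 Lung cancer cell lines in 1536-well plates were exposed by pinning to five library-drug doses (not always all listed) √10 apart, following an overnight hold at 37 °C. MetaXpress counted Hoechst-stained nuclei from 4× images taken after 5 days without medium change. Viability is the median ratio of treated-well to vehicle-well nuclei across plates. Plates required control CV below 25% and at least one doubling.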

| Cell Line | relative viability ([1]; first compound 0.05 µM) | relative viability ([1]; first compound 0.1581 µM) | relative viability ([1]; first compound 0.5 µM) | relative viability ([1]; first compound 1.581 µM) | relative viability ([1]; first compound 5 µM) | relative viability ([2]; first compound 0.05 µM) | relative viability ([2]; first compound 0.1581 µM) | relative viability ([2]; first compound 0.5 µM) | relative viability ([2]; first compound 1.581 µM) | relative viability ([2]; first compound 5 µM) | relative viability ([3]; first compound 0.05 µM) | relative viability ([3]; first compound 0.1581 µM) | relative viability ([3]; first compound 0.5 µM) | relative viability ([3]; first compound 1.581 µM) | relative viability ([3]; first compound 5 µM) | relative viability ([4]; 0.05 µM) | relative viability ([4]; 0.1581 µM) | relative viability ([4]; 0.5 µM) | relative viability ([4]; 1.581 µM) | relative viability ([4]; 5 µM) |
| --- | --- | --- | --- | --- | --- | --- | --- | --- | --- | --- | --- | --- | --- | --- | --- | --- | --- | --- | --- | --- |
| NCI-H1437 | 0.132 | 0.182 | 0.182 | 0.162 | 0.159 | 0.226 | 0.213 | 0.235 | 0.143 | 0.119 | 0.23 | 0.241 | 0.194 | 0.16 | 0.208 | 0.242 | 0.235 | 0.206 | 0.173 | 0.155 |
| NCI-H2085 | 0.198 | 0.297 | 0.243 | 0.178 | 0.239 | 0.307 | 0.25 | 0.293 | 0.281 | 0.278 | 0.183 | 0.19 | 0.216 | 0.153 | 0.224 | 0.359 | 0.321 | 0.357 | 0.299 | 0.313 |
| H3255 | 0.318 | 0.333 | 0.317 | 0.301 | 0.346 | 0.353 | 0.321 | 0.292 | 0.235 | 0.254 | 0.29 | 0.304 | 0.258 | 0.295 | 0.325 | 0.316 | 0.331 | 0.273 | 0.254 | 0.274 |
| NCI-H650 | 0.23 | 0.277 | 0.208 | 0.247 | 0.189 | 0.135 | 0.151 | 0.147 | 0.114 | 0.138 | 0.17 | 0.207 | 0.204 | 0.169 | 0.151 | 0.22 | 0.232 | 0.222 | 0.196 | 0.175 |
| LCLC-103H | 0.17 | 0.172 | 0.21 | 0.129 | 0.187 | 0.3 | 0.613 | 0.222 | 0.236 | 0.256 | 0.303 | 0.622 | 0.324 | 0.357 | 0.256 | 0.336 | 0.331 | 0.347 | 0.335 | 0.357 |
| LOU-NH91 | 0.371 | 0.403 | 0.352 | 0.262 | 0.419 | 0.482 | 0.562 | 0.458 | 0.44 | 0.451 | 0.632 | 0.6 | 0.583 | 0.512 | 0.452 | 0.5 | 0.572 | 0.553 | 0.42 | 0.464 |
| NCI-H1650 | 0.122 | 0.16 | 0.194 | 0.14 | 0.18 | 0.13 | 0.158 | 0.125 | 0.166 | 0.152 | 0.131 | 0.176 | 0.143 | 0.177 | 0.146 | 0.18 | 0.26 | 0.183 | 0.173 | 0.199 |
| NCI-H3122 | 0.0982 | 0.0876 | 0.119 | 0.128 | 0.124 | 0.118 | 0.291 | 0.0987 | 0.145 | 0.142 | 0.0866 | 0.159 | 0.0947 | 0.116 | 0.125 | 0.13 | 0.121 | 0.129 | 0.168 | 0.141 |
| PC-3 [JPC-3] | 0.332 | 0.342 | 0.334 | 0.277 | 0.195 | 0.581 | 0.506 | 0.432 | 0.382 | 0.351 | 0.402 | 0.409 | 0.318 | 0.357 | 0.342 | 0.473 | 0.459 | 0.358 | 0.309 | 0.231 |
| NCI-H1651 | 0.176 | 0.169 | 0.185 | 0.0924 | 0.0954 | 0.125 | 0.117 | 0.121 | 0.122 | 0.0747 | 0.209 | 0.156 | 0.137 | 0.102 | 0.0667 | 0.19 | 0.175 | 0.152 | 0.11 | 0.105 |
| NCI-H2087 | 0.141 | 0.156 | 0.166 | 0.0953 | 0.0819 | 0.123 | 0.113 | 0.138 | 0.144 | 0.0767 | 0.104 | 0.123 | 0.11 | 0.108 | 0.0815 | 0.16 | 0.218 | 0.19 | 0.165 | 0.138 |
